Test results published in patent publication US20080161396A1, “Method of control of arthropod pests of game and pet birds” (priority 2006, published 2008).
Several values for one entry are separate records, joined by “and”; a condition that tells them apart may be missing. Identical values can stand only once. Entries after “also recorded” stand apart in the source; their conditions may differ.

Experiments:
[1] = Hen survival of treated and control red grouse hens; format: in vivo, red grouse (Lagopus lagopus scoticus); conditions: for % hens alive after 6 months: alive in October
Procedure: (§1) The experiment was conducted on two sites located in the North of Scotland (March-October). In outline, on each Moor, hens were either treated with permethrin leg bands or with untreated band. After hatching, chicks from treated hens were also tagged and treated with permethrin partagial bands, while chicks from control brood were tagged but not treated with permethrin. The experiment was conducted on Tullybeagles Estate in Perthshire (hereafter referred as to Moor 1) and Forest of Birse Estate on Deeside (hereafter Moor 2). Both Moors are managed for grouse (heather burning, predator control, worm control) and had low grouse densities and low productivity in recent years.
(§2) Catching and treatment of hens. In spring (18 March-6 April), 40 hens were caught on Moor 1 and 20 on Moor 2. Each was randomly assigned to one of two treatments. Half the birds caught at each site were treated (i.e., given acaracide leg bands, two per bird), or kept as control (untreated bands). Hens were fitted with radio collars (TW-3, Biotrack) to facilitate relocation. Birds were aged, weighed, wing length measured and condition score recorded. All hens were dosed with anthelminthic (Levamisole hydrochloride 3%) to remove nematode parasites. Nematodes are well known for their negative effects on grouse breeding success and survival (Hudson, 1986), so removing them standardized the birds for this possible source of variation.

[2] = Breeding success, brood size, chick survival and chick growth of red grouse (treated vs control hens/broods); format: in vivo, red grouse (Lagopus lagopus scoticus); conditions: for Breeding success (%): only hens alive at the end of breeding season
Procedure: as §1, §2
Laying time. Nests were located by radio tracking and their location recorded using GPS. Clutch size was measured, and all eggs were weighed (with an electronic balance, to the nearest 0.1 g) and measured (length by width, with a caliper, to the nearest 0.1 mm). Egg density was used to estimate hatch dates (see Seivwright, 2004). If clutches were incomplete at first visit, nests were revisited.
Hatching success. Around predicted hatch date (from egg measurements), nests were located using GPS and number of hatched and un-hatched eggs were recorded. Broods were located by radio-tracking hens and chicks were found and counted with the aid of trained pointer dogs.
(§3) Brood survival to 2 weeks +/−5 days and treatment of chicks. Hens were located by radio tracking and pointer dogs were used to locate chicks. As many chicks as possible were captured. […] Brood survival to 1 month days +/−5 days. Hens were located by radio tracking and pointer dogs were used to locate chicks. As many chicks as possible were captured. […] length and tick counts (around head and neck area) were recorded. A blood sample was collected in EDTA coated eppendorfs. At 1 month, because it was difficult to ensure that all the chicks were found during daytime visits with dogs, we also located hens and broods at night by radio tracking and broods were counted using lamp. This provided the best estimate of brood size at 1 month, which was used in subsequent analyses.
Brood size at fledging. Hens were located at around 45 days post hatching. Broods were then flushed and number of chicks was counted.
(§4) Statistical analyses. Tick numbers were modeled using generalized linear mixed models with brood as a random effect and using a poisson error distribution. Tick burdens are known to be much less variable within broods than between broods (Elston et al., 2001). The seasonal pattern was investigated by fitting time as julian day (days from 1st January) and the asymptotic pattern in the data was captured using a quadratic function of julian day (julian day*julian day). The interaction between time and treatment was used to determine if the pattern of tick burden varied between treatments. The relationship between tick burden and age was investigated using chick age as number of days post hatching and the quadratic function of chick age to investigate if there was a significant asymptotic relationship between average brood tick abundance and chick age (a rise and fall in tick numbers in relation to age). […]

[3] = system: ticks; assay: Tick infestation of red grouse chicks after permethrin band treatment of hens and chicks (field experiment, two Moors); format: in vivo, Ixodes ricinus
Procedure: This experiment assessed the effect of ticks on grouse productivity. The experiment was replicated in two sites located in NE Scotland and Perthshire. On each Moor, hens were either treated with permethrin leg bands or with untreated bands. After hatching, chicks from treated hens were also treated and tagged with a permethrin band attached to a metal patagial tag, while chicks from control broods were tagged with only the metal patagial tags.
as §1, §2, §3
as §4, with “age). Hatching success was modeled using logistic regression (binomial error structure) with the proportion of eggs that hatched as a proportion of the total clutch size as the response variable. Brood survival was modeled using logistic regression (binomial error structure) with the proportion of chicks alive as a proportion of the number of chicks that hatched as the response variable.” for “age).”

[4] = system: ticks; conditions: pour on; high tick site; cited from earlier work

SMILES: CC1(C)C(C=C(Cl)Cl)C1C(=O)OCc1cccc(Oc2ccccc2)c1 (stereo not drawn) [permethrin]
- % hens alive after 6 months ([1]; Moor 1, treated hens): 68.4% and 60%
- % hens alive after 6 months ([1]; Moor 2, treated hens): 60% and 68%
- hen survival, treated compared with control hens ([1]; overall, FIG. 6): did not differ
- effect of treatment on growth (wing length or body mass) of chicks ([2]; Moor 1 & 2 combined, FIG. 4): no effect; also recorded: did not differ
- Breeding outcome (success %) ([2]; Moor 1, treated): (21.5%)
- Breeding outcome = Total number of young fledged ([2]; Moor 1, treated): 40
- Brood size at 1 month ([2]; Moor 1, treated): 3.6 ± 2.9
- Brood size at 2 weeks ([2]; Moor 1, treated): 6.0 ± 2.7
- Brood size at fledging ([2]; Moor 1, treated): 2.7 ± 2.9
- Hatched brood size ([2]; Moor 1, treated): 8.5 ± 3.2
- Breeding success (%) ([2]; Moor 1, treated): 35.9 ± 27.2%
- Breeding outcome (success %) ([2]; Moor 2, treated): (10.9%)
- Breeding outcome = Total number of young fledged ([2]; Moor 2, treated): 5
- Brood size at 1 month ([2]; Moor 2, treated): 2.0 ± 2.0
- Brood size at 2 weeks ([2]; Moor 2, treated): 3.4 ± 1.0
- Brood size at fledging ([2]; Moor 2, treated): 1.0 ± 1.2
- Hatched brood size ([2]; Moor 2, treated): 8.1 ± 2.4
- Breeding success (%) ([2]; Moor 2, treated): 12.8 ± 13.7%
- effect of hen treatment on number of eggs that hatched as a proportion of the clutch size (hatching success) ([2]; both Moors): no effect
- effect of treatment on brood size at 1 month of age ([2]; both Moors): no effect
- effect of treatment on brood size at 2 weeks of age ([2]; both Moors): no effect
- effect of treatment on brood size at fledging ([2]; both Moors, late July): no effect
- effect of treatment on chick survival rates ([2]; discussion summary): no effect
- hatched chicks alive at approximately 2 weeks of age ([2]; treated group (CL=57-71%), control 58%): 65%
- tick infestation rates of treated chicks compared with untreated chicks from treated mothers ([3]; across season, FIG. 1): significantly lower
- number of chicks with patagial treatment band found with ticks ([3]; chicks carrying patagial band): one
- average tick counts on treated chicks compared with control chicks ([3]; chicks with permethrin patagial band, taking into account seasonal pattern, FIG. 1): significantly lower
- average ticks per chick in untreated chicks from treated hens compared with control broods ([3]; hen treatment only (leg bands), across the season, FIG. 1): significantly lower
- tick infestation in untreated chicks from treated hens compared with controls in relation to chick age ([3]; hen treatment only, by chick age, FIG. 2): significantly lower
- tick infestation levels in untreated chicks from treated hens ([3]; hen treatment only, discussion summary): very low
- peak tick numbers in untreated chicks from treated hens relative to controls ([3]; hen treatment only, fraction of that found in controls): about one third
- peak tick numbers in untreated chicks from treated hens ([3]; hen treatment only, seasonal pattern): around 4 ticks per chick
- tick infestation rates of treated chicks compared with untreated chicks from treated mothers ([3]; in relation to chick age): no significant difference
- maximum mean infestation rate in the treated group ([3]; treated chicks, age 0 to 55 days, FIG. 2, control around 12): less than 2 ticks per chick
- tick numbers of treated chicks compared with controls in relation to age ([3]; treated chicks, age range 0 to 55 days, FIG. 2): significantly lower
- tick infestation after directly treating chicks with acaracide ([3]; treated chicks, discussion summary): negligible levels
- peak average tick numbers per chick in the treated group ([3]; treated chicks, seasonal pattern, FIG. 1, control peak around 13): 2 ticks per chick per brood

SMILES: CC1(C)[C@H](C(=O)O[C@H](C#N)c2cccc(Oc3ccccc3)c2)[C@@H]1C=C(Br)Br [deltamethrin]
- duration of short term effects [4]: up to 20 days
- time by which the effect had waned [4]: ≤ 40 days
